Assay results reported in PubChem BioAssay AID248 (DTP/NCI, 2004).
Toxic doses and inconclusive results are not listed. No stated cut-off is given here; in the data, active means T/C of 150% or more; inactive means T/C below 125%.

Tested on: L1210 leukemia ip in BDF1 mice, survival T/C
Assay: NCI In Vivo Anticancer Drug Screen. Data for tumor model L1210 Leukemia (intraperitoneal) in B6D2F1 (BDF1) mice
Conditions: endpoint: mean survival time, higher = longer survival
Summary of the method: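 Transplantable tumor model; survival measured in treated vs vehicle control mice. Value = treated/control.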

[1] = dose: 50.0 mg/kg/injection, schedule: Q01DX009 (ip), vehicle: Klucel (hydroxypropylcellulose) (HPC)
[2] = dose: 100.0 mg/kg/injection, schedule: Q01DX009 (ip), vehicle: Klucel (hydroxypropylcellulose) (HPC)
[3] = dose: 100.0 mg/kg/injection, schedule: Q01DX009 (ip), vehicle: saline with Tween-80
[4] = dose: 100.0 mg/kg/injection, schedule: Q04DX003 (ip), vehicle: saline with Tween-80
[5] = dose: 200.0 mg/kg/injection, schedule: Q01DX009 (ip), vehicle: saline with Tween-80
[6] = dose: 200.0 mg/kg/injection, schedule: Q04DX003 (ip), vehicle: saline with Tween-80
[7] = dose: 400.0 mg/kg/injection, schedule: Q01DX009 (ip), vehicle: saline with Tween-80
[8] = dose: 400.0 mg/kg/injection, schedule: Q04DX003 (ip), vehicle: saline with Tween-80
[9] = dose: 100.0 mg/kg/injection, schedule: Q01DX001 (ip), vehicle: carboxymethylcellulose (CMC)
[10] = dose: 200.0 mg/kg/injection, schedule: Q01DX001 (ip), vehicle: carboxymethylcellulose (CMC)
[11] = dose: 400.0 mg/kg/injection, schedule: Q01DX001 (ip), vehicle: carboxymethylcellulose (CMC)
[12] = dose: 50.0 mg/kg/injection, schedule: Q01DX001 (ip), vehicle: carboxymethylcellulose (CMC)
[13] = dose: 100.0 mg/kg/injection, schedule: Q04DX003 (ip), vehicle: Klucel (hydroxypropylcellulose) (HPC)
[14] = dose: 200.0 mg/kg/injection, schedule: Q04DX003 (ip), vehicle: Klucel (hydroxypropylcellulose) (HPC)
[15] = dose: 50.0 mg/kg/injection, schedule: Q01DX001 (ip), vehicle: saline
[16] = dose: 100.0 mg/kg/injection, schedule: Q01DX001 (ip), vehicle: saline
[17] = dose: 200.0 mg/kg/injection, schedule: Q01DX001 (ip), vehicle: saline
[18] = dose: 400.0 mg/kg/injection, schedule: Q01DX001 (ip), vehicle: saline
[19] = dose: 200.0 mg/kg/injection, schedule: Q01DX009 (ip), vehicle: Klucel (hydroxypropylcellulose) (HPC)
[20] = dose: 400.0 mg/kg/injection, schedule: Q01DX009 (ip), vehicle: Klucel (hydroxypropylcellulose) (HPC)

Measured: T/C

O=[N+]([O-])c1cccs1
inactive: [1] 97 % of control | [2] 108 % of control | dose: 100.0 mg/kg/injection, schedule: Q04DX003 (ip), vehicle: other 104 % of control | dose: 200.0 mg/kg/injection, schedule: Q04DX003 (ip), vehicle: other 103 % of control

O=C(Nc1ccc(Cl)c([N+](=O)[O-])c1)OCCOc1ccccc1
inactive: [3] 101 % of control | [4] 110 % of control | [5] 110 % of control | [6] 105 % of control | [7] 106 % of control | [8] 100 % of control

CC(=O)OC1C2C=CC(C2)C1OC(C)=O (stereo not drawn)
inactive: dose: 100.0 mg/kg/injection, schedule: Q01DX001 (ip), vehicle: other 100 % of control | dose: 200.0 mg/kg/injection, schedule: Q01DX001 (ip), vehicle: other 106 % of control | dose: 400.0 mg/kg/injection, schedule: Q01DX001 (ip), vehicle: other 112 % of control

Cc1nc(N)[nH]c(=O)c1CCCNS(=O)(=O)c1ccc(C(=O)CBr)cc1
inactive: [9] 93 % of control | [10] 87 % of control | [11] 96 % of control

CC(=O)c1ccc(S(=O)(=O)c2ccccc2)cc1
inactive: [12] 93 % of control | [9] 93 % of control | [4] 96 % of control | [10] 101 % of control | [6] 91 % of control | [11] 95 % of control | [8] 107 % of control

NC(CSC1c2ccccc2-c2ccccc21)C(=O)O (stereo not drawn)
inactive: dose: 75.0 mg/kg/injection, schedule: Q01DX001 (ip), vehicle: carboxymethylcellulose (CMC) 96 % of control | dose: 150.0 mg/kg/injection, schedule: Q01DX001 (ip), vehicle: carboxymethylcellulose (CMC) 98 % of control | dose: 300.0 mg/kg/injection, schedule: Q01DX001 (ip), vehicle: carboxymethylcellulose (CMC) 101 % of control

CC(C)N(C(C)C)S(C)(=O)=O
inactive: dose: 100.0 mg/kg/injection, schedule: Q04DX003 (ip), vehicle: saline 92 % of control

c1cc2cc3c(cc2cc1CC1NCCc2cc4c(cc21)OCO4)OCO3 (stereo not drawn)
inactive: [1] 88 % of control | [2] 101 % of control | [13] 100 % of control | [14] 94 % of control

COc1ccc(C(C)c2ccccc2)cc1C(C)c1ccccc1 (stereo not drawn)
inactive: [3] 93 % of control | [4] 98 % of control | [5] 95 % of control | [6] 89 % of control | [7] 88 % of control | [8] 98 % of control

CC(=O)CC(SCCSCCSC(CC(C)=O)c1ccccc1)c1ccccc1 (stereo not drawn)
inactive: [12] 89 % of control | [9] 89 % of control | [10] 97 % of control | [11] 97 % of control

Clc1ccc(Cl)c(N=NNc2cc(Cl)ccc2Cl)c1
inactive: [3] 101 % of control | [4] 98 % of control | [5] 101 % of control | [6] 101 % of control | [7] 103 % of control | [8] 96 % of control

Nc1ncnc2c1ncn2C1OC(CCO)C(O)C1O (stereo not drawn)
inactive: [9] 100 % of control | [10] 96 % of control | [11] 93 % of control

Nc1ccn(C2SC(CO)C(O)C2O)c(=O)n1 (stereo not drawn)
inactive: [15] 100 % of control | [16] 105 % of control | [17] 100 % of control | [18] 92 % of control

ON(C(=Nc1ccccc1)c1ccccc1)c1ccccc1
inactive: [15] 102 % of control | [16] 101 % of control

Brc1cc(Br)c2c(c1)-c1ccccc1C2
inactive: [9] 96 % of control | [10] 113 % of control | [11] 96 % of control

COc1ccc2c(c1)CCC1C2CCC2(C)C(=O)C(SC3=NC=NC4=NC=NC43)CC12 (stereo not drawn)
inactive: dose: 100.0 mg/kg/injection, schedule: Q01DX001 (sc), vehicle: steriod suspending solution 97 % of control | dose: 200.0 mg/kg/injection, schedule: Q01DX001 (sc), vehicle: steriod suspending solution 96 % of control | dose: 400.0 mg/kg/injection, schedule: Q01DX001 (sc), vehicle: steriod suspending solution 111 % of control

O=C(/C=C/C(=O)Oc1c(Cl)cc(Cl)cc1Cl)Oc1c(Cl)cc(Cl)cc1Cl
inactive: [2] 106 % of control | [13] 96 % of control | [4] 96 % of control | [19] 104 % of control | [14] 105 % of control | [6] 93 % of control | [20] 96 % of control | dose: 400.0 mg/kg/injection, schedule: Q04DX003 (ip), vehicle: Klucel (hydroxypropylcellulose) (HPC) 98 % of control | [8] 91 % of control

COC1OCC(O)C(NC(C)=O)C1O (stereo not drawn)
inactive: [16] 105 % of control | [17] 107 % of control | [18] 100 % of control

CCOC(=O)c1cnc(SC)nc1Oc1ccccc1
inactive: [3] 101 % of control | [5] 106 % of control | [7] 98 % of control

CCOC1Cc2ccccc21 (stereo not drawn)
inactive: [4] 95 % of control | [6] 96 % of control | [8] 98 % of control

Cc1cccc(NC(=O)Oc2ccc(Nc3ccccc3)cc2)c1
inactive: [2] 96 % of control | [19] 102 % of control | [20] 98 % of control

Cc1cc(-c2ccccc2)c2ccc3c(-c4ccccc4)cc(C)nc3c2n1
inactive: dose: 0.5 mg/kg/injection, schedule: Q01DX001 (ip), vehicle: carboxymethylcellulose (CMC) 105 % of control | dose: 1.0 mg/kg/injection, schedule: Q01DX001 (ip), vehicle: carboxymethylcellulose (CMC) 112 % of control | dose: 2.0 mg/kg/injection, schedule: Q01DX001 (ip), vehicle: carboxymethylcellulose (CMC) 95 % of control | dose: 4.0 mg/kg/injection, schedule: Q01DX001 (ip), vehicle: carboxymethylcellulose (CMC) 97 % of control | dose: 8.0 mg/kg/injection, schedule: Q01DX001 (ip), vehicle: carboxymethylcellulose (CMC) 100 % of control | dose: 10.0 mg/kg/injection, schedule: Q01DX001 (ip), vehicle: carboxymethylcellulose (CMC) 100 % of control | dose: 20.0 mg/kg/injection, schedule: Q01DX001 (ip), vehicle: carboxymethylcellulose (CMC) 95 % of control | dose: 80.0 mg/kg/injection, schedule: Q01DX001 (ip), vehicle: carboxymethylcellulose (CMC) 95 % of control | [9] 97 % of control

CC(=O)c1ccc2c(c1)CCN2
inactive: [2] 91 % of control | [19] 91 % of control

O=c1[nH]c(=O)c2n[nH]nc2[nH]1
inactive: dose: 1.0 mg/kg/injection, schedule: Q01DX009 (ip), vehicle: saline 103 % of control | dose: 2.0 mg/kg/injection, schedule: Q01DX009 (ip), vehicle: saline 93 % of control | dose: 4.0 mg/kg/injection, schedule: Q01DX009 (ip), vehicle: saline 95 % of control | dose: 8.0 mg/kg/injection, schedule: Q01DX009 (ip), vehicle: saline 103 % of control | dose: 16.0 mg/kg/injection, schedule: Q01DX009 (ip), vehicle: saline 101 % of control | dose: 16.0 mg/kg/injection, schedule: Q01DX015 (ip), vehicle: carboxymethylcellulose (CMC) 88 % of control | dose: 75.0 mg/kg/injection, schedule: Q01DX009 (ip), vehicle: saline 110 % of control | [9] 96 % of control | dose: 115.0 mg/kg/injection, schedule: Q01DX009 (ip), vehicle: saline 107 % of control | dose: 125.0 mg/kg/injection, schedule: Q01DX015 (ip), vehicle: carboxymethylcellulose (CMC) 92 % of control | dose: 170.0 mg/kg/injection, schedule: Q01DX009 (ip), vehicle: saline 98 % of control | [10] 102 % of control | dose: 255.0 mg/kg/injection, schedule: Q01DX009 (ip), vehicle: saline 97 % of control | dose: 385.0 mg/kg/injection, schedule: Q01DX009 (ip), vehicle: saline 105 % of control | [11] 91 % of control

CS(=O)(=O)Cc1ccccc1
inactive: [2] 101 % of control | dose: 100.0 mg/kg/injection, schedule: Q04DX002 (ip), vehicle: Klucel (hydroxypropylcellulose) (HPC) 86 % of control | [19] 101 % of control | dose: 200.0 mg/kg/injection, schedule: Q04DX002 (ip), vehicle: Klucel (hydroxypropylcellulose) (HPC) 101 % of control | [20] 86 % of control | dose: 400.0 mg/kg/injection, schedule: Q04DX002 (ip), vehicle: Klucel (hydroxypropylcellulose) (HPC) 90 % of control

C/C=C/CC1(CC(C)C)C(=O)NC(=S)NC1=O
inactive: dose: 75.0 mg/kg/injection, schedule: Q01DX001 (ip), vehicle: saline 102 % of control | dose: 150.0 mg/kg/injection, schedule: Q01DX001 (ip), vehicle: saline 94 % of control | dose: 300.0 mg/kg/injection, schedule: Q01DX001 (ip), vehicle: saline 99 % of control
